We go through three molecules from paper PMC7865263, “Synthesis and Biological Evaluation of a Novel ^18F-Labeled Radiotracer for PET Imaging of the Adenosine A2A Receptor” (International Journal of Molecular Sciences, 2021).

Details of series [1]: method as in PMID 32252340. The settings on record: mice, 15 min p.i.; cited from earlier work.
The target of series [2] is T1, A2AR (Mus musculus, UniProt Q60613).
T1 construct: from tissue; host or cells: living CD-1 mice, brain regions (in vivo PET/MR)
The arrangement: method as in PMID 21843786, PMID 25061687, PMID 32252340. The note with it: mice; cited from earlier work.

Series [3] can be described thus: Chemical stability in saline, PBS and n-octanol at 37 °C. The series is classed as physicochemical. The note with it: up to 60 min. As to the method:
(§1) The chemical stability of [^18F]TOZ1 was investigated in isotonic saline, phosphate-buffered saline (PBS, pH 7.4) and n-octanol by incubation at 37 °C. Samples were taken at 15, 30 and 60 min of incubation time and analyzed by radio-TLC and radio-HPLC. The logD7.4 value of [^18F]TOZ1 was experimentally determined in n-octanol/PBS at RT by the shake-flask method. The measurements were performed in triplicate.

A short description of series [4]: Distribution coefficient LogD7.4, n-octanol/PBS, shake-flask method. It counts as physicochemical. The settings on record: pH 7.4, n-octanol–PBS, n = 3. As to the method:
as §1

In series [5] the target is T1, A2AR. Put plainly: In vitro autoradiography on mouse brain cryosections. The series is classed as binding. The method, then: (§2) Brains of CD-1 mice and piglets frozen in isopentane were cut using a cryostat, thaw-mounted onto microscope slides, and after air-drying stored at −80 °C until use. Briefly, the brain cryosections were dried in a stream of cold air, and pre-incubated in 50 mM TRIS HCl buffer (pH 7.4, 100 mM NaCl, 5 mM MgCl2, 1 mM EDTA) containing 1 µU/mL adenosine deaminase (ADA) for 15 min at RT. Afterwards, brain sections were incubated with 0.1 MBq/mL of [^18F]TOZ1 (1.1 nM) in buffer for 90 min at RT. Non-specific binding was determined in the presence of 1 µM ZM241385. Displacement was evaluated with different concentrations of TOZ1 in order to determine the binding affinity towards the A2AR. Subsequently, the sections were washed twice for 5 min in ice-cold TRIS-HCl buffer and dipped for 5 s in ice-cold deionized water. The sections were rapidly dried in a stream of cold air before being exposed overnight on an imaging plate. Developed autoradiographs were analyzed in a phosphor imager (HD-CR 35; Duerr NDT GmbH; Bietigheim-Bissingen, Germany). Quantification was performed by using 2D-densitometric analysis (AIDA 2.31 software; raytest Isotopenmessgeräte GmbH; Straubenhardt, Germany).

The subject of series [6] is A2AR. Briefly: In vitro autoradiography on pig brain cryosections. The series is classed as binding. As to the method:
as §2

In the next series the target is mA2AR (Mus musculus, UniProt Q60613). Briefly: Radioligand binding assay towards mouse A2AR. The note with it: in-house; tozadenant value: unpublished data.
Series [7] is described as follows: In vivo metabolism (radiometabolite analysis) in CD-1 mice. The arrangement: species or system mouse. The settings on record: 30 min p.i., n = 2. As to the method:
The radiotracer was administered i.v. as bolus in awake CD-1 mice (40 MBq [^18F]TOZ1; n = 2). At 30 min post injection (p.i.), blood samples were taken retroorbitally from the anesthetized animals. Plasma was separated by centrifugation at 8000 rpm at RT for 1 min (Centrifuge 5418; Eppendorf Vertrieb Deutschland GmbH; Wesseling-Berzdorf; Germany), and brain homogenized in 1 mL water on ice (10 strokes of a PTFE plunge at 1000 rpm in a borosilicate glass cylinder; Potter S Homogenizer; B. Braun Melsungen AG; Melsungen, Germany). For protein precipitation and extraction an ice-cold mixture of acetone/water (4/1; v/v) was used in a ratio of 4:1 (v/v) of solvent to plasma or brain homogenate, respectively. The samples were vortexed for 3 min, equilibrated on ice for 5 min, and centrifuged for 5 min at 10,000 rpm. After separating the supernatant, the precipitates were washed with 100 µL of the solvent mixture and subjected to the same procedure. The combined supernatants were concentrated at 75 °C under nitrogen flow to a final volume of approx. 100 µL and analyzed by analytical radio-HPLC (see section quality control). To determine the percentage of activity in the supernatants compared to total activity, aliquots of each step as well as the precipitates were quantified by a gamma counter (Wallac Wizard 1480; Perkin Elmer; Turku; Finland).

In series [8] the target is T1, A2AR. Briefly: Dynamic PET/MR imaging in CD-1 mice. The series is classed as in vivo. The method, then:
For the time of the experiments, CD-1 mice were kept in a dedicated climatic chamber with free access to water and food under a 12:12 h dark:light cycle at a constant temperature (24 °C). The animals were anaesthetized (anesthesia unit U-410; agntho’s; Lidingö; Sweden) with isoflurane (1.8%, 0.35 L/min) delivered in a 40% oxygen/60% air mixture (Gas Blender 100 Series; MCQ instruments; Rome, Italy) and maintained at 37 °C with a thermal bed system. The formulated radiotracer was injected into the tail vein ([^18F]TOZ1: […] in 150 µL isotonic saline; Am: 66 GBq/µmol; 7.9 ± 5.8 nmol/kg) followed by a 60 min PET/MR scan (PET/MR 1Tesla; nanoScan®; MEDISO Medical Imaging Systems; Budapest, Hungary): 7 baseline studies with vehicle (DMSO/Kolliphor/NaCl, 1:2:7, v/v/v), 3 pre-treatment studies with tozadenant (2.5 mg/kg; abcr GmbH; Karlsruhe, Germany) and 4 pre-treatment studies with cyclosporine A (50 mg/kg; Sigma Aldrich, Germany). Each PET image was corrected for random coincidences, dead time, scatter and attenuation (AC), based on a whole body (WB) MR scan. The list mode data were sorted into sinograms using a framing scheme of 12 × 10 s, 6 × 30 s, 5 × 300 s, […]. The reconstruction parameters for the list mode data were 3D-ordered subset expectation maximization (OSEM), 4 iterations, 6 subsets, energy window: 400–600 keV, coincidence mode: 1–5, ring difference: 81. The mice were positioned prone in a special mouse bed (heated up to 37 °C), with the head fixed to a mouth piece for the anesthetic gas supply with isoflurane in 60% air and 40% oxygen (anesthesia unit: U-410, agnthos, Lidingö, Sweden; Gas blender: MCQ, Rome, Italy). The PET data were collected by a continuous WB scan during the entire investigation. Following the 60 min PET scan a T1 weighted WB gradient echo sequence (TR/TE: 20/6.4 ms, NEX: 1, FA: 25, FOV: 64 × 64 mm, matrix: 128 × 128, slice thickness: 0.5 mm) was performed for AC and anatomical orientation. Image registration and evaluation of the volumes of interest (VOI) was done with PMOD 3.9 (PMOD technologies LLC; Zurich, Switzerland). The respective brain regions were identified using the mouse brain atlas template Ma-Benveniste-Mirrione-FDG. Spherical VOI with diameters of 1 to 2 mm were placed at the center of the liver, stomach and spleen. Gallbladder, small intestine, kidney, and bladder VOI were delineated from the PET signal. Heart wall, stomach wall and blood were delineated from the T1 weighted image avoiding spill over from neighboring organs. The activity data are expressed as mean SUV + SEM of the overall VOI.

The target in series [9] is A2AR. The note with it: read-out: Ki (r); rat; cited from earlier work.

“And” between values parts separate entries of the source, which are not always exact repeats. Identical values can stand only once. Like-named read-outs stand apart in the source and are kept apart here. Bounds are passed on as bounds.

T1 sequence (Q60613 whole entry): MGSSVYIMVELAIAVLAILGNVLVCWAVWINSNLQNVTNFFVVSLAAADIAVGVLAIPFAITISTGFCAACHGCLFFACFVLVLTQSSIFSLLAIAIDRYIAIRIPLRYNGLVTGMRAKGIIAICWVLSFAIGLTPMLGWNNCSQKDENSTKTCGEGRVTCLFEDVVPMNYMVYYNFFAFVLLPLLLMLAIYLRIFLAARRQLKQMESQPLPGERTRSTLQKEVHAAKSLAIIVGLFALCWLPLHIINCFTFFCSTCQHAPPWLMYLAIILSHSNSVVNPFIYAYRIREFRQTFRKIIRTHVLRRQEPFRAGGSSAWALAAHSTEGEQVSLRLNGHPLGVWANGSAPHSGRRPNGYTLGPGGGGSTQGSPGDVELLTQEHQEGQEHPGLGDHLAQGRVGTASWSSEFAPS
Chain of mA2AR (Q60613 whole entry): as above

For `Nc1nc2c(cnn2CCCc2ccc(OCCF)cc2)c2nc(-c3ccco3)nn12` [[^18F]FESCH], in [1], the “parent fraction in brain” value is given as 71% and the “parent fraction in plasma” value is recorded as 41%. The “maximum SUVr striatum-to-cerebellum” value on A2AR [2] is ~ 5.
In the case of `COc1ccc(N2CCOCC2)c2sc(NC(=O)c3ccc([18F])nc3)nc12` [[^18F]TOZ1], in series [3], the “stability in saline, PBS and n-octanol” value is “stability of [^18F]TOZ1 was proven in all tested media”. In [4], this molecule gave a logD of 1.74 ± 0.08. Besides, the “total binding ratio striatum-to-cerebellum” value at A2AR [5] (in vitro binding studies) is reported as 1.7. Also, the “binding in A2AR-poor regions (cerebellum, midbrain, cortex, thalamus)” value on A2AR [5] (mouse brain) and in the series with A2AR [6] (pig brain) was “only negligible binding” throughout. The “binding in striatum displaced by co-incubation with 1 µM ZM241385” value at A2AR [5] (mouse striatum, 1 nM radiotracer) is given as “Approx. 60%”; in the series with A2AR [6] (pig striatum, 1 nM radiotracer), “Approx. 60%”. The “maximum receptor density (Bmax)” value on A2AR [5] (mouse striatum, homologous competition, n = 3) is on record as 287 ± 104 fmol/mg wet weight. For the same molecule, the Kd on A2AR [5] (mouse striatum, homologous competition, n = 3, read-out: equilibrium dissociation constant (KD)) is 23 ± 5.5 nM. Moreover, the affinity on mA2AR, expressed as Ki, was 10 nM. Also, in series [7], the “parent fraction in brain” value was > 92% and 92%. For the same molecule, the “maximum SUV ratio (SUVr) striatum-to-cerebellum” value on A2AR [8] (baseline) is reported as 1.2. Moreover, the “initial brain uptake, standardized uptake value (SUV)” value at A2AR [8] (between 1–5 min, baseline) was determined as 0.4. For the same molecule, at A2AR [8] (cyclosporine A 50 mg/kg vs. vehicle, n = 4), the “effect of pre-administration of cyclosporine A (P-gp inhibitor) on uptake in striatum and whole brain” value was “a tendency to a higher uptake was observed in the striatum and the whole brain, but it was not significant”. In addition, the “effect of pre-administration of tozadenant on activity accumulation in brain” value at A2AR [8] (tozadenant 2.5 mg/kg vs. vehicle, n = 3) is listed as “could not reduce the accumulation of the activity in the brain”. Further, the “initial SUV in heart, stomach, spleen, liver” value at A2AR [8] (whole-body PET) is reported as less than 5. In addition, on A2AR [8] (whole-body PET, 60 min), the SUV60 min bladder was 11.2. For the same molecule, the SUV60 min gallbladder at A2AR [8] (whole-body PET, 60 min) is listed as 39.2. Further, the “SUV60 min small intestine” value at A2AR [8] (whole-body PET, 60 min) was 26.3.
For the molecule NECA, on A2AR [9], the Ki was 8.3 nM.
